Laboratory results taken from publication PMC9636434, “Discovery of small molecule agonists of the Relaxin Family Peptide Receptor 2” (Communications Biology, 2022).
Several values for one entry are separate records, joined by “and”; a condition that tells them apart may be missing. Identical values can stand only once. Like-named read-outs stand apart in the source and are kept apart here.

Tests used:
human RXFP4 = molecular target: T1, human RXFP4 (Homo sapiens, UniProt Q8TDU9); assay: GloSensor cAMP assay in RXFP4 transiently transfected HEK293T cells; type: cell-based; conditions: for RLU (cAMP, raw): RXFP4, 0.1 µM isoproterenol, replicates (1)-(4)
T1 construct: host or cells: HEK293T (transient)

human TSHR = human TSHR (Homo sapiens, UniProt P16473); assay: HitHunter cAMP XS+ assay, cAMP Hunter cell line TSHR; type: cell-based; conditions: for RLU: replicates (1),(2)
Description: Results are reported as raw RLU values and represent the
mean ± SEM of 2 technical replicates.

[1] = system: human aortic vascular smooth muscle cells (HAVSMC); assay: CellTiter-Glo cytotoxicity assay in HAVSMC cells; type: cell-based; conditions: experiments (1)-(3)
Description: Fig. 4 RXFP2 agonists induce mineralization of primary human osteoblasts and are non-cytotoxic. a Mineral hydroxyapatite fluorescent quantification after 14-day treatment in HCO cells. Results were normalized to control DMSO as 100% mineralization. b HCO and c HAVSMC toxicity after 24-h treatment with RXFP2 agonists, normalized to DMSO treatment as 0% toxicity. Results are expressed as mean ± SEM of 3 independent experiments. *p < 0.05, *** p < 0.001 vs. DMSO using One-way ANOVA.
Cell viability studies were undertaken to identify potential cytotoxic effects of the RXFP2 agonists. HCO cells and human aortic vascular smooth muscle cells (HAVSMC) were treated for 24 h. […] At 8.3 µM and below, no toxicity was found in HCO cells and toxicity was below 20% in HAVSMC cells for all three compounds (Fig. 4b, c).
The ATP CellTiter-Glo Luminescent Cell Viability Assay (Promega, Madison, WI) was used to measure cytotoxicity induced by the compounds in HCO cells and human aortic vascular smooth muscle cells (HAVSMC) (ATCC, Manassas, VA). HCO and HAVSMC cells were seeded in 96-well plates at 3000 and 7000 cells per well respectively. Cells were incubated overnight, treated with compound or DMSO vehicle and incubated for 24 h at 37 °C, 5% CO2. […] Plates were shaken for 2 min, incubated at room temperature for 10 min and the luminescent signal was read on a CLARIOstar plate reader.

RXFP2 = RXFP2 (Homo sapiens, UniProt Q8WXD0); assay: HTRF cAMP assay in HEK-RXFP2 cells (stably transfected; also primary HTS); type: cell-based; set-up: FLAG (N); expressed in transfected cells; conditions: for % Eff (cAMP response): experiments (1)-(3), 100 nM INSL3 = 100%, DMSO = 0%; for EC50: HEK-RXFP2
Experimental: A quantitative high-throughput screening (HTS) of more than 80 K compounds of the NCATS/NIH diversity collection was performed at four concentrations in HEK293T cells stably expressing human RXFP2 to identify candidate agonists. A homogenous time resolved fluorescence (HTRF) assay was used to directly detect compound-induced cAMP accumulation, with forskolin or human recombinant INSL3 serving as positive controls. […] A confirmatory CRE-luciferase cAMP screen was used to eliminate any potential false positives due to assay detection artifacts (Supplementary Fig. 1a).
The cAMP response induced by the compounds was normalized to the cAMP response induced by 100 nM INSL3 as 100% efficacy and the cAMP response induced by DMSO vehicle as 0% efficacy. Emax and EC50 were calculated using four parameter nonlinear fit dose-response stimulation curves. […] Molecular weight (MW).
The HTRF Gs dynamic cAMP assay kit (CisBio, Bedford, MA) was used to measure intracellular cAMP accumulation in HEK293T cells (ATCC, Manassas, VA)[56]. […] The cell stock was verified mycoplasma free and authenticated by ATCC. Transient transfection was accomplished by treating cells in a 6-well plate with a mixture of 2 μg plasmid and 6 μL Lipofectamine 2000 (Invitrogen, Waltham, MA) per manufacturer’s protocol and incubating overnight. For cAMP measurement in 96-well format, HEK293T cells stably transfected with human RXFP2 (HEK-RXFP2), human RXFP1 (HEK-RXFP1), mouse Rxfp1 (HEK-Rxfp1) or transiently transfected with human RXFP1-RXFP2 chimeric receptors were seeded between 7500 and 30,000 cells per well, depending on cell line responsiveness, in serum-free DMEM medium and incubated overnight at 37 °C, 5% CO2. After 18 h, cells were treated with a titration of compound, 2 μM forskolin, or DMSO vehicle. Control wells were also treated with a titration of INSL3 (Phoenix Pharmaceuticals, Burlingame, CA) or human recombinant relaxin 2 (Peprotech, Cranbury, NJ). For the RXFP2 antagonist experiment, cells were co-treated with 0.28 μM compound or 30 nM INSL3 and a titration of the INSL3 B dimer antagonist[38],[39]. For the INSL3 allosteric modulation experiment, cells were co-treated with 0.025, 0.0025, or 0.00025 μM of compound and a titration of INSL3. Cells were incubated for 1 h at 37 °C, 5% CO2, and then kit cAMP-d2 and anti-cAMP antibody were added per manufacturer protocol. Plates were incubated for 1 h at room temperature and the signal was read on a CLARIOstar plate reader (BMG Labtech, Ortenberg, Germany) at 665 and 620 nm emission wavelengths.

[2] = 10 mg/kg PO 3 times per week, 8 weeks

RXFP2, sequence (Q8WXD0 whole entry): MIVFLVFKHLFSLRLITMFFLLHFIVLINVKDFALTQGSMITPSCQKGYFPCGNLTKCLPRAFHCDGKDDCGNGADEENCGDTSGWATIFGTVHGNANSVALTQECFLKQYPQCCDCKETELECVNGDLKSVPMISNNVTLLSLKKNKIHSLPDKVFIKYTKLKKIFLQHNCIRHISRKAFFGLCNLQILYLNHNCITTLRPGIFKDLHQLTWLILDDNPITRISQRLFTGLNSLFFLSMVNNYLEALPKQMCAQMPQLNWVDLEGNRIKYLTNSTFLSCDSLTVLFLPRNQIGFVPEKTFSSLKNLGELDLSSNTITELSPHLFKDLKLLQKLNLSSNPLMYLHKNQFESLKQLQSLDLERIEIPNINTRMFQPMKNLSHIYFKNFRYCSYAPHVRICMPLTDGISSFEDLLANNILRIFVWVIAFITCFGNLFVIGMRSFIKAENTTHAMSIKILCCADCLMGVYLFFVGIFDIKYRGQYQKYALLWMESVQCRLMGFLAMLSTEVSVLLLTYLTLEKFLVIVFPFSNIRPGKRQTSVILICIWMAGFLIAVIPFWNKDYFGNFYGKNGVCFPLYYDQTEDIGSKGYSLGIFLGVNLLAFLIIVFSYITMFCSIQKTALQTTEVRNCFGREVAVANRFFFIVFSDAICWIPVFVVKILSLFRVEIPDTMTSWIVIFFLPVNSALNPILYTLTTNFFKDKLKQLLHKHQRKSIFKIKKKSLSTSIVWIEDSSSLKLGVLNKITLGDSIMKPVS
T1 sequence (Q8TDU9 whole entry): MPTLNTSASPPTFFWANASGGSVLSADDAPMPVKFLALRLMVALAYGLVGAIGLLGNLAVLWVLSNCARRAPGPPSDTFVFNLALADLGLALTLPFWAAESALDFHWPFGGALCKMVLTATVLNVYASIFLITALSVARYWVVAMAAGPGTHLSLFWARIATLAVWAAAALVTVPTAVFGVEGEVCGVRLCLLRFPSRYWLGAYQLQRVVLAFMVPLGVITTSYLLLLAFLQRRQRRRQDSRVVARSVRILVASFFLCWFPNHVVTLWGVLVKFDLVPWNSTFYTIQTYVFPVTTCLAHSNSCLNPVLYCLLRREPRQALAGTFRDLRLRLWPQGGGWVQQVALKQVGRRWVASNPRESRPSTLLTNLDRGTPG
human TSHR, sequence (P16473 21-764): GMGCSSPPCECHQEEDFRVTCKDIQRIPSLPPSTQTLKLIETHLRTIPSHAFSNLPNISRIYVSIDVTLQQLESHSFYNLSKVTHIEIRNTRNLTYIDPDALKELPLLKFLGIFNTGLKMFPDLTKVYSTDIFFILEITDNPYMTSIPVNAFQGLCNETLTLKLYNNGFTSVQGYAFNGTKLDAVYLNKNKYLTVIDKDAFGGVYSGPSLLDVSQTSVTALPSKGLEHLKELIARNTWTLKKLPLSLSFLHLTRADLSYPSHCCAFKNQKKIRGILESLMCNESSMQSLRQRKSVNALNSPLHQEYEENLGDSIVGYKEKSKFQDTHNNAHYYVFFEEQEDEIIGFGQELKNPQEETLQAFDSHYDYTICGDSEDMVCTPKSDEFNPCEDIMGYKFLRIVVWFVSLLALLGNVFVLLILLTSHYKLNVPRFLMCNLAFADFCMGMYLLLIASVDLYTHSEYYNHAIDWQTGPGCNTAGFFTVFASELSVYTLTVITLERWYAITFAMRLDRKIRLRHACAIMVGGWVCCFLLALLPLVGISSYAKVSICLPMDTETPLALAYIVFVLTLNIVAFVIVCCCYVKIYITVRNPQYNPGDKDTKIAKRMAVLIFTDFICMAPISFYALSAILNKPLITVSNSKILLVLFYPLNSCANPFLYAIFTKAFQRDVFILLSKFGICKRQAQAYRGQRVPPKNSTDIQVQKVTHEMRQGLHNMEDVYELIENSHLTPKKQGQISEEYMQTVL

With O=C1Nc2ccc(-c3cc(C(F)(F)F)cc(C(F)(F)F)c3)cc2C(=O)N2CCN(C(=O)COc3ccc(OC(F)(F)F)cc3I)C[C@@H]12 [compound 6641] the “RLU (cAMP, raw)” value (human RXFP4; Log [M] -4.52) was 2463.26 RLU and 2323.36 RLU and 2574.77 RLU and 2436.25 RLU, the “RLU (cAMP, raw)” value (human RXFP4; Log [M] -5) was 3185.64 RLU and 3376.11 RLU and 2670.35 RLU and 2223.62 RLU and the “RLU (cAMP, raw)” value (human RXFP4; Log [M] -5.52) was 2765.92 RLU and 2530.44 RLU and 2513.13 RLU and 2428.63 RLU. For the same molecule, the “RLU (cAMP, raw)” value (human RXFP4; Log [M] -6) was 3247.28 RLU and 3052.66 RLU and 2557.45 RLU and 2549.14 RLU, the “RLU (cAMP, raw)” value (human RXFP4; Log [M] -6.52) was 2853.88 RLU and 2734.06 RLU and 2619.79 RLU and 2767.31 RLU and the “RLU (cAMP, raw)” value (human RXFP4; Log [M] -7) was 2986.17 RLU and 3107.38 RLU and 2961.24 RLU and 2947.39 RLU. The “RLU (cAMP, raw)” value (human RXFP4; Log [M] -7.52) was 3270.14 RLU and 3165.55 RLU and 2781.16 RLU and 2887.13 RLU, the “RLU (cAMP, raw)” value (human RXFP4; Log [M] -8) was 3594.97 RLU and 2898.21 RLU and 2737.53 RLU and 2621.17 RLU and the “RLU (cAMP, raw)” value (human RXFP4; Log [M] -8.52) was 2962.83 RLU and 3046.77 RLU and 3010.47 RLU and 2788.15 RLU. The “RLU (cAMP, raw)” value (human RXFP4; Log [M] -9) was 3689.54 RLU and 3613.16 RLU and 3120.12 RLU and 2641.44 RLU, the “RLU (cAMP, raw)” value (human RXFP4; Log [M] -9.52) was 3253.97 RLU and 3351.52 RLU and 2965.85 RLU and 3151.88 RLU and the “RLU (cAMP, raw)” value (human RXFP4; Log [M] -10) was 3784.82 RLU and 3051.3 RLU and 3541.33 RLU and 3042.99 RLU. The “RLU (cAMP, raw)” value (human RXFP4; Log [M] -10.52) was 2937.88 RLU and 2859.99 RLU and 3018.03 RLU and 2959.05 RLU, the “RLU (cAMP, raw)” value (human RXFP4; Log [M] -11) was 3244.89 RLU and 3354.54 RLU and 2788.9 RLU and 3100.46 RLU and the “RLU (cAMP, raw)” value (human RXFP4; Log [M] -11.52) was 3393.86 RLU and 2984 RLU and 2869.06 RLU and 2844.86 RLU. For the same molecule, the “RLU (cAMP, raw)” value (human RXFP4; Log [M] -12) was 3689.54 RLU and 3235.82 RLU and 3343.96 RLU and 2573.39 RLU, the “activation of RXFP4 (cAMP inhibition)” value (human RXFP4; cAMP induced by 0.1 µM isoproterenol) was “does not activate” and the “cAMP response through TSHR” value (human TSHR; Hit Hunter cAMP assay) was “did not result in an increase of cAMP level”. For the same molecule, the RLU (human TSHR; Log [M] -4.70) was 1000 RLU and 1240 RLU, the RLU (human TSHR; Log [M] -5.18) was 1000 RLU and 1040 RLU and the RLU (human TSHR; Log [M] -5.65) was 960 RLU. For the same molecule, the RLU (human TSHR; Log [M] -6.13) was 1040 RLU, the RLU (human TSHR; Log [M] -6.61) was 1200 RLU and the RLU (human TSHR; Log [M] -7.08) was 880 RLU. The RLU (human TSHR; Log [M] -7.56) was 920 RLU and 1000 RLU, the RLU (human TSHR; Log [M] -8.04) was 880 RLU and the RLU (human TSHR; Log [M] -8.52) was 1080 RLU and 920 RLU. The RLU (human TSHR; Log [M] -8.99) was 960 RLU and 1040 RLU, the “% Tox” value ([1]; Log [M] -5.08, 24 h) was 15.51% and 24.11% and 15.33% and the “% Tox” value ([1]; Log [M] -5.56, 24 h) was 15.84% and 5.85%. For the same molecule, the “% Eff (cAMP response)” value (RXFP2; Log [M] -4.60) was 104.78% and 100.31% and 87.28%, the “% Eff (cAMP response)” value (RXFP2; Log [M] -5.60) was 76.57% and 72.45% and 73.51% and the “% Eff (cAMP response)” value (RXFP2; Log [M] -6.60) was 55.58% and 48.02% and 47.8%. For the same molecule, the “% Eff (cAMP response)” value (RXFP2; Log [M] -7.60) was 15.09% and 15.05% and 13.98%, the “% Eff (cAMP response)” value (RXFP2; Log [M] -8.60) was 1.51% and 0.43% and 1.99% and the “% Eff (cAMP response)” value (RXFP2; Log [M] -9.60) was -0.34% and 0.01% and 0.17%. The “Emax (1)-(3)” value (RXFP2; individual experiments, % vs. 100 nM INSL3) was 115% and 116.5% and 89.48%, the EC50 (RXFP2; individual experiments, read-out: EC50 (1)-(3)) was 358 nM and 568 nM and 217 nM and the “Emax (% vs. 100 nM INSL3) (AVERAGE)” value (RXFP2; mean (± SEM) of 3 independent experiments) was 107% and 106.99 ± 8.77% and 106.99%. The EC50 (RXFP2; mean (± SEM) of 3 independent experiments, read-out: EC50 (AVERAGE)) was 380 nM and < 1000 nM, the “body or organ (liver, kidney) weight vs vehicle” value [2] was “No changes” and the “histological analysis of livers and kidneys” value [2] was “did not show any changes in cell morphology”. For the same molecule, the “Left Kidney weight” value (Left Kidney, after 8-week oral treatment, individual mice) was 0.4912 and 0.4654 and 0.4705 and 0.5626 and 0.5314 and 0.5304 and 0.5976 and 0.5317 and 0.5347 and 0.5015 and 0.5707 and 0.5055 and 0.4688 and 0.4947 and 0.545, the Liver weight (Liver, after 8-week oral treatment, individual mice) was 4.014 and 3.487 and 3.8235 and 3.754 and 3.582 and 3.355 and 4.71 and 3.617 and 3.875 and 3.519 and 3.904 and 3.698 and 3.86 and 3.544 and 3.928 and the “Right Kidney weight” value (Right Kidney, after 8-week oral treatment, individual mice) was 0.5699 and 0.5019 and 0.5734 (2×) and 0.5889 and 0.5665 and 0.5265 and 0.5931 and 0.5579 and 0.5793 and 0.6089 and 0.5717 and 0.4908 and 0.5191 and 0.5352. The “Body weight” value (day 18, individual mice) was 19.85 g and 17.73 g and 17.98 g and 16.95 g and 18.38 g and 18.83 g and 21.28 g and 19.38 g and 20.27 g and 20.03 g and 16.32 g and 20.68 g and 19.45 g and 18.87 g and 17.54 g, the “Body weight” value (day 21, individual mice) was 19.93 g and 18.04 g and 17.94 g and 17.08 g and 17.98 g and 19.29 g and 21.67 g and 19.33 g and 20.02 g and 19.71 g and 16.43 g and 21.48 g and 19.84 g and 19.3 g and 18.07 g and the “Body weight” value (day 25, individual mice) was 20.1 g and 18.01 g and 17.55 g and 16.7 g and 18.33 g and 19.06 g and 21.44 g and 20.16 g and 20.44 g and 20.28 g and 16.93 g and 21.61 g and 19.73 g and 19.34 g and 18.63 g. For the same molecule, the “Body weight” value (day 28, individual mice) was 19.97 g and 17.83 g and 17.52 g and 17.01 g and 18.4 g and 18.9 g and 22.31 g and 19.96 g and 21.2 g and 20.35 g and 17.55 g and 21.63 g and 20.55 g and 19.62 g and 18.84 g, the “Body weight” value (day 32, individual mice) was 20.73 g and 18.54 g and 18.23 g and 16.58 g and 19.25 g and 19.78 g and 22.35 g and 20.74 g (2×) and 21.45 g and 17.18 g and 20.72 g and 20.18 g and 19.42 g and 18.61 g and the “Body weight” value (day 35, individual mice) was 20.28 g and 18.14 g and 18.03 g and 17.15 g and 19.17 g and 19.71 g and 22.83 g and 20.57 g and 20.92 g and 19.8 g and 17.11 g and 22.36 g and 20.66 g and 20.25 g and 18.8 g. For the same molecule, the “Body weight” value (day 39, individual mice) was 20.17 g and 18.1 g and 17.93 g and 17.63 g and 19.64 g and 20.24 g and 22.43 g and 20.72 g and 21.92 g and 20.95 g.
